Test results: US20050245563A1 (Millennium Pharmaceuticals, Inc., priority 2003, published 2005)
Where a name gives a salt, the structure may show the parent alone.

Target: T1, human Chk1 (GST-Chk1) (Homo sapiens, UniProt O14757)
T1 construct: made in house; host or cells: insect cells (baculovirus, Bac-to-Bac)
T1 sequence (O14757 1-476): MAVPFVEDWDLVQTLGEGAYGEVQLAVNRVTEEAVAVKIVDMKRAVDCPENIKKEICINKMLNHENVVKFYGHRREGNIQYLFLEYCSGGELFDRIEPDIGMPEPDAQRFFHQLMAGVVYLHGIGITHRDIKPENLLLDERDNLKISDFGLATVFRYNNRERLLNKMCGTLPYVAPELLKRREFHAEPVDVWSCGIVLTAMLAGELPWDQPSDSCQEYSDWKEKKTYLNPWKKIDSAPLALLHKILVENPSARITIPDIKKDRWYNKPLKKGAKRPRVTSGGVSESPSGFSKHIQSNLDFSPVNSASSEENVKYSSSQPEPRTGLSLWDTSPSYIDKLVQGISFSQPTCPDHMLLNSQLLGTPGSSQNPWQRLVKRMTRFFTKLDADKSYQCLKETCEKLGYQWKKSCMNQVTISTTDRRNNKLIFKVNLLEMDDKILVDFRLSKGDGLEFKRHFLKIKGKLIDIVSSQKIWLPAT
Test: Chk1 DELFIA kinase assay (2 nM GST-Chk1, 600 μM ATP)
Format: biochemical
Details: Biotin-GLYRSPSMPEN-amide substrate
Procedure, shortened: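 Enzyme is N-terminal GST-Chk1 from baculovirus/insect cells, assayed with 1 μM biotin-GLYRSPSMPEN-amide in pH 7.5 Tris buffer, 4% DMSO and 10 mM MgCl2 for 50 min at room temperature. EDTA-stopped reactions were captured on NeutrAvidin. Phospho-peptide was detected by anti-phospho-Ser216-Cdc25c antibody with europium-labeled secondary and time-resolved fluorescence.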

SMILES | IC50 [µM]
Cc1[nH]nc2c1c(=O)n(CCCN)c1ccc(CCCN(C)C)cc21 [Example 296, 5-(3-Amino-propyl)-8-(3-dimethylamino-propyl)-3-methyl-2,5-dihydro-pyrazolo[4,3-c]quinolin-4-one] | < 1
Cc1[nH]nc2c1c(=O)n(CCCN)c1ccc(CCCN3CCCC3)cc21 [Example 297, 5-(3-Amino-propyl)-3-methyl-8-(3-pyrrolidin-1-yl-propyl)-2,5-dihydro-pyrazolo[4,3-c]quinolin-4-one] | < 1
CC(=O)NCCCc1ccc2c(c1)c1n[nH]c(C)c1c(=O)n2CCCN [Example 298, N-{3-[5-(3-Amino-propyl)-3-methyl-4-oxo-4,5-dihydro-2H-pyrazolo[4,3-c]quinolin-8-yl]-propyl}-acetamide] | < 1
Cc1[nH]nc2c1c(=O)n(CCCN)c1ccc(CCc3ccccn3)cc21 [Example 299, 5-(3-Amino-propyl)-3-methyl-8-(2-pyridin-2-yl-thyl)-2,5-dihydro-pyrazolo[4,3-c]quinolin-4-one] | < 1
CCc1ccc2c(c1)c1n[nH]c(C)c1c(=O)n2CCCNC [Example 300, 8-Ethyl-3-methyl-5-(3-methylamino-propyl)-2,5-dihydro-pyrazolo[4,3-c]quinolin-4-one] | < 1
Cc1[nH]nc2c1c(=O)n(CCCN)c1ccc(CCCO)cc21 [Example 301, 5-(3-Amino-propyl)-8-(3-hydroxy-propyl)-3-methyl 2,5-dihydro-pyrazolo[4,3-c]quinolin-4-one] | < 1
CCCc1ccc2c(c1)c1n[nH]c(C)c1c(=O)n2CCCN [Example 302, 5-(3-Amino-propyl)-3-methyl-8-propyl-2,5-dihydro-pyrazolo[4,3-c]quinolin4-one] | < 1
C#Cc1ccc2c(c1)c1n[nH]c(C)c1c(=O)n2C[C@H]1CCCNC1 [Example 303, 8-Ethynyl-3-methyl-5-piperidin-3-ylmethyl-2,5-dihydro-pyrazolo[4,3-c]quinolin-4-one] | < 1
C#Cc1ccc2c(c1)c1n[nH]c(CC)c1c(=O)n2CCCNC [Example 304, 8-Ethynyl-3-ethyl-5-(3-methylamino-propyl)-2,5-dihydro-pyrazolo[4,3-c]quinolin-4-one] | < 1
COCCc1[nH]nc2c1c(=O)n(CCCN)c1ccc(C#CCN3CCCC3)cc21 [Example 305, 5-(3-Amino-propyl)-3-(2-methoxy-ethyl)-8-(3-pyrrolidin-1-yl-prop-1-ynyl)-2,5-dihydro-pyrazolo[4,3-c]quinolin-4-one] | < 1
Cc1[nH]nc2c1c(=O)n(CCCN)c1ccc(-c3ccc(C#N)cc3)cc21 [Example 306, 4-[5-(3-Amino-propyl)-3-methyl-4-oxo-4,5-dihydro-2H-pyrazolo[4,3-c]quinolin-8-yl]-benzonitrile] | < 1
Cc1[nH]nc2c1c(=O)n(CCCN)c1ccc(-c3ccc(N(C)C)cc3)cc21 [Example 307, 5-(3-Amino-propyl)-8-(4-dimethylamino-phenyl)-3-methyl-2,5-dihydro-pyrazolo [4,3-c]quinolin-4-one] | < 1
Cc1[nH]nc2c1c(=O)n(CCCN)c1ccc(-c3cccnc3)cc21 [Example 308, 5-(3-Amino-propyl)-3-methyl-8-pyridin-3-yl-2,5-dihydro-pyrazolo[4,3-c]quinolin-4-one] | < 1
Cc1[nH]nc2c1c(=O)n(CCCN)c1ccc(-c3ccoc3)cc21 [Example 309, 5-(3-Amino-propyl)-8-furan-3-yl-3-methyl-2,5-dihydro-pyrazolo[4,3-c]quinolin-4-one] | < 1
Cc1[nH]nc2c1c(=O)n(CCCN)c1ccc(N3CCCC3)cc21 [Example 310, 5-(3-Amino-propyl)-3-methyl-8-pyrrolidin-1-yl-2,5-dihydro-pyrazolo[4,3-c]quinolin-4-one] | < 1
CCc1[nH]nc2c1c(=O)n(CCCN)c1ccc(Cl)cc21 [Example 311, 5-(3-Amino-propyl)-8-chloro-3-ethyl-2,5-dihydro-pyrazolo[4,3-c]quinolin-4-one hydrochloride] | < 1
